Measurements: patent US8431593B2, “Heteroaryl amide derivatives” (H. Lundbeck A/S, priority 2006, dated 2013)

target: T1, P2X7 receptor (Homo sapiens, UniProt Q99572); test: P2X7 calcium mobilization assay, high throughput, antagonist activity (Example 4A); assay type: cell-based; conditions: not given
T1 construct: host or cells: SH-SY5Y
T1 sequence (Q99572 1-595): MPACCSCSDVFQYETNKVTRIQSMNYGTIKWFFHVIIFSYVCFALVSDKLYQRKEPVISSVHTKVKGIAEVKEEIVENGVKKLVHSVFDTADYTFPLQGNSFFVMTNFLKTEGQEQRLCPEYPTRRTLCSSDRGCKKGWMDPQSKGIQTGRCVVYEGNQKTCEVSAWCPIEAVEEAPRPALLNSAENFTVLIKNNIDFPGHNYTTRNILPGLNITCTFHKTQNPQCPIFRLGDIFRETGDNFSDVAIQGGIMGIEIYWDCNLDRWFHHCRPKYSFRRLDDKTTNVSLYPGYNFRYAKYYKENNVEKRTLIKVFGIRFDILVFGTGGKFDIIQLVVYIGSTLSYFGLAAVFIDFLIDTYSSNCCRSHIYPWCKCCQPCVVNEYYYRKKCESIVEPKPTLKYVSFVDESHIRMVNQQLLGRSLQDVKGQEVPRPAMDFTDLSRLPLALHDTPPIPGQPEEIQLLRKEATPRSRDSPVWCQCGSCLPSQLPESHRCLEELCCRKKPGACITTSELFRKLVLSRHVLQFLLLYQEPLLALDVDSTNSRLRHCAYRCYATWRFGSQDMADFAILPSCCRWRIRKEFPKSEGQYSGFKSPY
Outline: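 Antagonism was measured as calcium mobilization on FLIPR^TETRA after a 1 h room-temperature compound preincubation of dye-loaded cells. Baseline from no-agonist wells was subtracted from each well's maximum RFU.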

Compound | IC50
COCC1CCN(C(=O)c2cn3c(C(=O)NCC45CC6CC(CC(C6)C4)C5)cccc3n2)CC1 [Compound 87, N-(adamantan-1-ylmethyl)-2-{[4-(methoxy-methyl)piperidin-1-yl]carbonyl}imi-dazo[1,2-a]pyridine-5-carboxamide] | < 2000 nM
COCCC1CCN(C(=O)c2cn3c(C(=O)NCC45CC6CC(CC(C6)C4)C5)cccc3n2)CC1 [Compound 88, N-(adamantan-1-ylmethyl)-2-{[4-(2-methoxyethyl)piperidin-1-yl]carbonyl}imidazo[1,2-a]pyridine-5-carboxamide] | < 2000 nM

same assay, conditions: SH-SY5Y cells; 50% decrease in fluorescence response to 80 μM BzATP; read-out: IC50

IC50 | Compound
< 2000 nM | C[C@@H](O)CNC(=O)c1cn2c(C(=O)NCC34CC5CC(CC(C5)C3)C4)cccc2n1 [Compound 81, 5-N-(adamantan-1-ylmethyl)--[(2R)-2-hydroxy-propyl]imidazo[1,2-a]pyridine-2,5-dicarboxamide]
< 2000 nM | C[C@H](O)CNC(=O)c1cn2c(C(=O)NCC34CC5CC(CC(C5)C3)C4)cccc2n1 [Compound 82, 5-N-(adamantan-1-ylmethyl)--[(2S)-2-hydroxy-propyl]imidazo[1,2-a]pyridine-2,5-dicarboxamide]
< 2000 nM | CCC(O)CNC(=O)c1cn2c(C(=O)NCC34CC5CC(CC(C5)C3)C4)cccc2n1 (stereo not shown) [Compound 83, 5-N-(adamantan-1-ylmethyl)--(2-hydroxy-butyl)imidazo[1,2-a]pyridine-2,5-dicarboxamide]
< 2000 nM | CC(O)CCNC(=O)c1cn2c(C(=O)NCC34CC5CC(CC(C5)C3)C4)cccc2n1 (stereo not shown) [Compound 84, 5-N-(adamantan-1-ylmethyl)--(3-hydroxy-butyl)imidazo[1,2-a]pyridine-2,5-dicarboxamide]
< 2000 nM | CC(C)[C@H](CO)NC(=O)c1cn2c(C(=O)NCC34CC5CC(CC(C5)C3)C4)cccc2n1 [Compound 85, 5-N-(adamantan-1-ylmethyl)--[(1R)-1-(hydroxymethyl)-2-methyl-propyl]imidazo[1,2-a]pyridine-2,5-dicarboxamide]
< 2000 nM | CC(O)CNC(=O)c1cn2c(C(=O)NCC34CC5CC(CC(C5)C3)C4)cccc2n1 (stereo not shown) [Compound 86, 5-N-(adamantan-1-ylmethyl)--(2-hydroxy-propyl)imidazo[1,2-a]pyridine-2,5-dicarboxamide]
< 2000 nM | CN1CCN(C(=O)c2cn3c(C(=O)NCC45CC6CC(CC(C6)C4)C5)cccc3n2)CC1 [Compound 89, N-(adamantan-1-ylmethyl)-2-[(4-methylpiperazin-1-yl)carbonyl]imidazo[1,2-a]pyridine-5-carboxamide]
< 2000 nM | CN(C(=O)c1cn2c(C(=O)NCC34CC5CC(CC(C5)C3)C4)cccc2n1)C1CCOC1 (stereo not shown) [Compound 90, 5-N-(adamantan-1-ylmethyl)--methyl-- (tetrahydrofuran-3-yl)imidazo[1,2-a]pyridine-2,5-dicarboxamide]
< 2000 nM | CN(C)CCN(C)C(=O)c1cn2c(C(=O)NCC34CC5CC(CC(C5)C3)C4)cccc2n1 [Compound 91, 5-N-(adamantan-1-ylmethyl)--[2-(dimethylamino)ethyl]-- methylimidazo[1,2-a]pyridine-2,5-dicarboxamide]
< 2000 nM | CN1CCC(N(C)C(=O)c2cn3c(C(=O)NCC45CC6CC(CC(C6)C4)C5)cccc3n2)C1 (stereo not shown) [Compound 92, 5-N-(adamantan-1-ylmethyl)--methyl--(1-methylpyrrolidin-3-yl)imidazo[1,2-a]pyridine-2,5-dicarboxamide]
< 2000 nM | CN(C)C1CCN(C(=O)c2cn3c(C(=O)NCC45CC6CC(CC(C6)C4)C5)cccc3n2)C1 (stereo not shown) [Compound 93, N-(adamantan-1-ylmethyl)-2-{[3-(dimethyl-amino)pyrrolidin-1-yl]carbonyl}imidazo[1,2-a]pyridine-5-carboxamide]
< 2000 nM | COCCN1CCN(C(=O)c2cn3c(C(=O)NCC45CC6CC(CC(C6)C4)C5)cccc3n2)CC1 [Compound 94, N-(adamantan-1-ylmethyl)-2-{[4-(2-methoxyethyl)piperazin-1-yl]carbonyl}imidazo[1,2-a]pyridine-5-carboxamide]
< 2000 nM | COC1CCN(C(=O)c2cn3c(C(=O)NCC45CC6CC(CC(C6)C4)C5)cccc3n2)CC1 [Compound 95, N-(adamantan-1-ylmethyl)-2-[(4-methoxypiperidin-1-yl)carbonyl]imidazo[1,2-a]pyridine-5-carboxamide]
< 2000 nM | CS(=O)(=O)C1CCN(C(=O)c2cn3c(C(=O)NCC45CC6CC(CC(C6)C4)C5)cccc3n2)CC1 [Compound 96, N-(adamantan-1-ylmethyl)-2-{[4-(methyl-sulfonyl)piperidin-1-yl]carbonyl}imidazo[1,2-a]pyridine-5-carboxamide]
< 2000 nM | CS(=O)(=O)N1CCN(C(=O)c2cn3c(C(=O)NCC45CC6CC(CC(C6)C4)C5)cccc3n2)CC1 [Compound 97, N-(adamantan-1-ylmethyl)-2-{[4-(methyl-sulfonyl)piperazin-1-yl]carbonyl}imidazo[1,2-a]pyridine-5-carboxamide]
< 2000 nM | CN(CCNS(C)(=O)=O)C(=O)c1cn2c(C(=O)NCC34CC5CC(CC(C5)C3)C4)cccc2n1 [Compound 98, 5-N-(adamantan-1-ylmethyl)--methyl--{2-[(methyl-sulfonyl)amino]eth-yl)imidazo[1,2-a]pyridine-2,5-dicarboxamide]
< 2000 nM | O=C1CN(C(=O)c2cn3c(C(=O)NCC45CC6CC(CC(C6)C4)C5)cccc3n2)CCN1 [Compound 99, N-(adamantan-1-ylmethyl)-2-[(3-oxopiperazin-1-yl)carbonyl]imidazo[1,2-a]pyridine-5-carboxamide]
< 2000 nM | COC1CCCN(C(=O)c2cn3c(C(=O)NCC45CC6CC(CC(C6)C4)C5)cccc3n2)C1 (stereo not shown) [Compound 100, N-(adamantan-1-ylmethyl)-2-[(3-methoxypiperidin-1-yl)carbonyl]imidazo[1,2-a]pyridine-5-carboxamide]
< 2000 nM | O=C(NCC12CC3CC(CC(C3)C1)C2)c1cccc2nc(C(=O)N3CCC(N4CCOCC4)CC3)cn12 [Compound 101, N-(adamantan-1-ylmethyl)-2-[(4-morpholin-4-ylpiperidin-1-yl)carbonyl]imidazo[1,2-a]pyridine-5-carboxamide]
< 2000 nM | NC(=O)C1CCN(C(=O)c2cn3c(C(=O)NCC45CC6CC(CC(C6)C4)C5)cccc3n2)CC1 [Compound 102, N-(adamantan-1-ylmethyl)-2-[(4-carbamoylpiperidin-1-yl)carbonyl]imidazo[1,2-a]pyridine-5-carboxamide]
< 2000 nM | NC(=O)C1CCCN(C(=O)c2cn3c(C(=O)NCC45CC6CC(CC(C6)C4)C5)cccc3n2)C1 (stereo not shown) [Compound 103, N-(adamantan-1-ylmethyl)-2-[(3-carbamoylpiperidin-1-yl)carbonyl]imidazo[1,2-a]pyridine-5-carboxamide]
< 2000 nM | O=C(NCC12CC3CC(CC(C3)C1)C2)c1cccc2nc(C(=O)N3CCCC(O)C3)cn12 (stereo not shown) [Compound 105, N-(adamantan-1-ylmethyl)-2-[(3-hydroxypiperidin-1-yl)carbonyl]imidazo[1,2-a]pyridine-5-carboxamide]
< 2000 nM | O=C(NCC12CC3CC(CC(C3)C1)C2)c1cccc2nc(C(=O)N3CCC(O)CC3)cn12 [Compound 106, N-(adamantan-1-ylmethyl)-2-[(4-hydroxypiperidin-1-yl)carbonyl]imidazo[1,2-a]pyridine-5-carboxamide]
< 2000 nM | O=C(NCC12CC3CC(CC(C3)C1)C2)c1cccc2nc(C(=O)N3CC(O)C3)cn12 [Compound 107, N-(adamantan-1-ylmethyl)-2-[(3-hydroxyazetidin-1-yl)carbonyl]imidazo[1,2-a]pyridine-5-carboxamide]
< 2000 nM | CC1(O)CCN(C(=O)c2cn3c(C(=O)NCC45CC6CC(CC(C6)C4)C5)cccc3n2)CC1 [Compound 108, N-(adamantan-1-ylmethyl)-2-[(4-hydroxy-4-methylpiperidin-1-yl)carbonyl]imidazo[1,2-a]pyridine-5-carboxamide]
< 2000 nM | CC1(O)CCN(C(=O)c2cn3c(C(=O)NCC45CC6CC(CC(C6)C4)C5)cccc3n2)C1 (stereo not shown) [Compound 112, N-(adamantan-1-ylmethyl)-2-[(3-hydroxy-3-methylpyrrolidin-1-yl)carbonyl]imidazo[1,2-a]pyridine-5-carboxamide]
< 2000 nM | C[C@@H]1CN(C(=O)Cc2cn3c(C(=O)NCC45CC6CC(CC(C6)C4)C5)cccc3n2)CCN1 [Compound 114, N-(adamantan-1-ylmethyl)-2-{2-[(3R)-3-methylpiperazin-1-yl]-2-oxoethyl}imidazo[1,2-a]pyridine-5-carboxamide]
< 2000 nM | N[C@@H]1CCN(CCc2cn3c(C(=O)NCC45CC6CC(CC(C6)C4)C5)cccc3n2)C1 [Compound 115, 2-[2-((R)-3-amino-pyrrolidin-1-yl)-ethyl]-imidazo[1,2-a]pyridine-5-carboxylic acid (adamantan-1-ylmethyl)-amide]
< 2000 nM | O=C(NCC12CC3CC(CC(C3)C1)C2)c1cccc2nc(CCN3CCC(O)CC3)cn12 [Compound 116, 2-[2-(4-hydroxy-piperidin-1-yl)-ethyl]-imidazo[1,2-a]pyridine-5-carboxylic acid (adamantan-1-ylmethyl)-amide]
